The values below come from patent US20040152722A1 (priority 2001, published 2004).

Structures are written as SMILES.

Assay [1] relates to Rigidity Model of Mouse Induced By Haloperidol. The settings on record: in vivo, po.
The subject of assay [2] is Tremor Model of Mice Induced by Agonist of Cholinergic M-Receptor: Arecaline. The settings on record: mouse, in vivo, po.

For the compound `OC(CCN1CCCCC1)(c1ccccc1)C1CCCCC1` (centres unmarked) [Benzhexol], the “ED50 + L95” value in assay [1] is reported as 19.56 ± 1.44 mg/kg; in assay [2], 8.82 ± 0.83 mg/kg.
